Reference: patent publication US7253166B2, “6-phenyl-7H-pyrrolo[2,3-d]pyrimidine compounds that induce neuronal differentiation in embryonic stem cells” (IRM LLC, priority 2003, dated 2007)

Columns and labels:
[1] = biological target: Flt-1 (Homo sapiens, UniProt P17948); test: Kinase inhibition Flt-1; assay type: biochemical
[2] = system: GSK-3β/β-catenin signaling; test: GSK-3β/β-catenin-dependent signaling, TCF/LEF (pTOPFLASH) luciferase reporter in P19 cells; assay type: cell-based; settings: 10 μM, 36 hours
Method: P19 cells are co-transfected with pTOPFLASH (containing four consensus LEF-1/TCF-1 binding sites, a minimal promoter and a firefly luciferase reporter) and renilla luciferase control reporter (Promega). […] Thirty-six hours later, cells are lysed and protein extracts are assayed for luciferase activity. The fold induction offirefly luciferase activity is normalized to renilla luciferase activity. The normalized activities are averaged over three experiments.

[3] = biological target: KDR (Homo sapiens, UniProt P35968); test: Kinase inhibition KDR; assay type: biochemical
[4] = biological target: PDGFR-β (Homo sapiens, UniProt P09619); test: Kinase inhibition PDGFR-β; assay type: biochemical
Sequence of PDGFR-β (P09619 33-1106, species assumed): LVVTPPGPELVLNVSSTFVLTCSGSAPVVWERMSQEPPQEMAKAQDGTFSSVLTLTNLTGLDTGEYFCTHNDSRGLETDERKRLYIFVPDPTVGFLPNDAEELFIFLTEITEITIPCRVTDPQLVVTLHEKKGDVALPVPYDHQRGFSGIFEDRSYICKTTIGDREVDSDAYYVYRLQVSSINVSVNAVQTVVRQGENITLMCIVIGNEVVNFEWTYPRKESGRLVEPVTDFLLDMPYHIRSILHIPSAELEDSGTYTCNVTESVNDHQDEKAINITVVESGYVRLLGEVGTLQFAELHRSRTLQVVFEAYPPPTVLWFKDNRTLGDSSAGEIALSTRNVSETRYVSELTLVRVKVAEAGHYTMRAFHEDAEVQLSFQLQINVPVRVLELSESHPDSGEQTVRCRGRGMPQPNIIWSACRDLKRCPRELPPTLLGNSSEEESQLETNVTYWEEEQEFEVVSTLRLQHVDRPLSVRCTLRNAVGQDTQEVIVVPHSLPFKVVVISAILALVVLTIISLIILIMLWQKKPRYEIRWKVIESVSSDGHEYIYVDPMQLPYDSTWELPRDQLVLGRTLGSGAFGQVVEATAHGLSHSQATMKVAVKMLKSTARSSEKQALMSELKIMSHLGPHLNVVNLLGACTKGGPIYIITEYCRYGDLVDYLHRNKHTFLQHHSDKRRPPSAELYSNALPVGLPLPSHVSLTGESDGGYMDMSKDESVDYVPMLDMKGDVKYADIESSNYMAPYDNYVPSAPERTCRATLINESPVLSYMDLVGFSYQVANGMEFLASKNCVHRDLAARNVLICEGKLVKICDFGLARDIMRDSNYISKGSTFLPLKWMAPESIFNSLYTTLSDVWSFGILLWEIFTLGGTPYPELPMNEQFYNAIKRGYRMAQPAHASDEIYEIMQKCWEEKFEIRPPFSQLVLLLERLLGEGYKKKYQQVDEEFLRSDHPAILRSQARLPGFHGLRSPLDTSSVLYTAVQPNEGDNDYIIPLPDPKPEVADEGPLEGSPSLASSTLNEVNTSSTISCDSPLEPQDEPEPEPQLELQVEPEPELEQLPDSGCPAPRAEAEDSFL

[5] = biological target: c-src (Homo sapiens, UniProt P12931); test: Kinase inhibition c-src; assay type: biochemical
Sequence of c-src (P12931 whole entry, species assumed): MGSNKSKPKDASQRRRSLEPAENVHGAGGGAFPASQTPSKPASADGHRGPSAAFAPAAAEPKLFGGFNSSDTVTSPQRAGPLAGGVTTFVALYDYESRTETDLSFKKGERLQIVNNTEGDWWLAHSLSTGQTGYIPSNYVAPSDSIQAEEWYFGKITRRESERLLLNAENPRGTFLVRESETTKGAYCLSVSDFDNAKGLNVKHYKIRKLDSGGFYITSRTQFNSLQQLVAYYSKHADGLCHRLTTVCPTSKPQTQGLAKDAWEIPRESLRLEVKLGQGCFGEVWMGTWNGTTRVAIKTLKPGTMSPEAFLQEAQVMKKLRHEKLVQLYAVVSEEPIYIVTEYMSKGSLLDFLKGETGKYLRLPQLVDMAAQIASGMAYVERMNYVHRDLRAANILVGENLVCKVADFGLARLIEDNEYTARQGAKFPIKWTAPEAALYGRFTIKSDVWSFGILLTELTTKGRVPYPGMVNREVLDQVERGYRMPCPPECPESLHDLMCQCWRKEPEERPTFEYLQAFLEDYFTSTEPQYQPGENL

[6] = biological target: HER-2 (Homo sapiens, UniProt P04626); test: Kinase inhibition HER-2; assay type: biochemical
Sequence of HER-2 (P04626 23-1255, species assumed): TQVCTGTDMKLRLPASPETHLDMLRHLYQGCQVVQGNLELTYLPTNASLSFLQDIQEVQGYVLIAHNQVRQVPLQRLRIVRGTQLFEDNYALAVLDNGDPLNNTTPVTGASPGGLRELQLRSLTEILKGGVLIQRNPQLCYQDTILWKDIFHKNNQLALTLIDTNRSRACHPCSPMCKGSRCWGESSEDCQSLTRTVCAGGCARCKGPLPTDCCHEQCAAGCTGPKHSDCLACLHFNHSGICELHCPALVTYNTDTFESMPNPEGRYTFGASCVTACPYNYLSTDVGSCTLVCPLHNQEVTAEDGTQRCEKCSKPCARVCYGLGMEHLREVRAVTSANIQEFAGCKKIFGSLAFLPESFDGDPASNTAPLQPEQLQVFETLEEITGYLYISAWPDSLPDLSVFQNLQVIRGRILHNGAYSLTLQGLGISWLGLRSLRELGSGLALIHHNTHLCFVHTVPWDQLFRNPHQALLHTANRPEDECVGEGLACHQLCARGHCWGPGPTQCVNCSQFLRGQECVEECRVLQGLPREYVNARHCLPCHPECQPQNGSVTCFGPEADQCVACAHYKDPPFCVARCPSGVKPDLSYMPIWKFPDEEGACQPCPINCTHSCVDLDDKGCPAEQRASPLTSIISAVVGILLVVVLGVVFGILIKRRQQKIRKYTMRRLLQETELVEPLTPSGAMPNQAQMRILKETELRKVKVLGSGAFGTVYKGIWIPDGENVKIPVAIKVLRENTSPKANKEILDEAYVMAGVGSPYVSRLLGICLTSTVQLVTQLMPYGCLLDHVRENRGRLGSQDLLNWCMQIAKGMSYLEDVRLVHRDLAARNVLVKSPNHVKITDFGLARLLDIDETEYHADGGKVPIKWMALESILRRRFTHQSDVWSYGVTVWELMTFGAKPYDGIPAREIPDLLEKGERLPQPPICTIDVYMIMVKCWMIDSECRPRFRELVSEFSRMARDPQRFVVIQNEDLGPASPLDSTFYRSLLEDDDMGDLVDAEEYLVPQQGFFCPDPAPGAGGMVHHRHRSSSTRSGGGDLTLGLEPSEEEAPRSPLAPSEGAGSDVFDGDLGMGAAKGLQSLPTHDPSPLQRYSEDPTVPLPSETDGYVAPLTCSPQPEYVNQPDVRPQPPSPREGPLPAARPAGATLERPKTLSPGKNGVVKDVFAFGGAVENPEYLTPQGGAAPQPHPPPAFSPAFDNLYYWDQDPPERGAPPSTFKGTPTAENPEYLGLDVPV

[7] = biological target: Tek (Homo sapiens, UniProt Q02763); test: Kinase inhibition Tek; assay type: biochemical
[8] = biological target: c-Abl (Homo sapiens, UniProt P00519); test: Kinase inhibition c-Abl; assay type: biochemical
Sequence of c-Abl (P00519 whole entry): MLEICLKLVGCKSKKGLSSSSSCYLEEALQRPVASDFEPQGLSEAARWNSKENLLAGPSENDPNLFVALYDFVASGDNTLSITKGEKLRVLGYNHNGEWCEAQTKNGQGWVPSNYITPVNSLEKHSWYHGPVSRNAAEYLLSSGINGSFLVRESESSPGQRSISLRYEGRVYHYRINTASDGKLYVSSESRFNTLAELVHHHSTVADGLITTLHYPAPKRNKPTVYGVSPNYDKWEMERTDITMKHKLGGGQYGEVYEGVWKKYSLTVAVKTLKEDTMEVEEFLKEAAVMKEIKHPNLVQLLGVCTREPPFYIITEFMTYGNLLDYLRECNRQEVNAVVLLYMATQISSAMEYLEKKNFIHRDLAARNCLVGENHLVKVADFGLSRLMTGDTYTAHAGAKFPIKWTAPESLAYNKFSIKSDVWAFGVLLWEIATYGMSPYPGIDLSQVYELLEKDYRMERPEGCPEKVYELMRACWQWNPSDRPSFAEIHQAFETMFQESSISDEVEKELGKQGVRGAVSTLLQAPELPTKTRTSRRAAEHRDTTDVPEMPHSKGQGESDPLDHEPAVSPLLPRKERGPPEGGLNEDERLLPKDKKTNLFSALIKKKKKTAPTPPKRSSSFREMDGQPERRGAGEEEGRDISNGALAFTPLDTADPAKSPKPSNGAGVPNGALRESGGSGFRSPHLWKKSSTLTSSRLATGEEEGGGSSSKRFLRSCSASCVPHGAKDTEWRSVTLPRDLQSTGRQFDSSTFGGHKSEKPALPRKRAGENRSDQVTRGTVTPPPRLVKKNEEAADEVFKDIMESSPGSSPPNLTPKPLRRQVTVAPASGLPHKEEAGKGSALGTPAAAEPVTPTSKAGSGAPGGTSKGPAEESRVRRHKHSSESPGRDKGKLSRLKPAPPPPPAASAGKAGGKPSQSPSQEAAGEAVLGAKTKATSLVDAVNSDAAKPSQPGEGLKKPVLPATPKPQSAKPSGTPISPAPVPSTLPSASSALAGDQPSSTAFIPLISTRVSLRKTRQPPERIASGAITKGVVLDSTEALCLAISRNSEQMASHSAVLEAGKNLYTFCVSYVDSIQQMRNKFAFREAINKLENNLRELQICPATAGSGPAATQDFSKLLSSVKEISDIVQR

[9] = biological target: HER-1 (Homo sapiens, UniProt P00533); test: Kinase inhibition HER-1; assay type: biochemical
[10] = system: P19 cells; test: Neuronal differentiation in P19 cell monolayers (morphology, immunostaining with neuronal markers); assay type: cell-based; settings: 1 μM
[11] = biological target: c-Kit (Homo sapiens, UniProt P10721); test: Kinase inhibition c-Kit; assay type: biochemical
Sequence of c-Kit (P10721 26-976): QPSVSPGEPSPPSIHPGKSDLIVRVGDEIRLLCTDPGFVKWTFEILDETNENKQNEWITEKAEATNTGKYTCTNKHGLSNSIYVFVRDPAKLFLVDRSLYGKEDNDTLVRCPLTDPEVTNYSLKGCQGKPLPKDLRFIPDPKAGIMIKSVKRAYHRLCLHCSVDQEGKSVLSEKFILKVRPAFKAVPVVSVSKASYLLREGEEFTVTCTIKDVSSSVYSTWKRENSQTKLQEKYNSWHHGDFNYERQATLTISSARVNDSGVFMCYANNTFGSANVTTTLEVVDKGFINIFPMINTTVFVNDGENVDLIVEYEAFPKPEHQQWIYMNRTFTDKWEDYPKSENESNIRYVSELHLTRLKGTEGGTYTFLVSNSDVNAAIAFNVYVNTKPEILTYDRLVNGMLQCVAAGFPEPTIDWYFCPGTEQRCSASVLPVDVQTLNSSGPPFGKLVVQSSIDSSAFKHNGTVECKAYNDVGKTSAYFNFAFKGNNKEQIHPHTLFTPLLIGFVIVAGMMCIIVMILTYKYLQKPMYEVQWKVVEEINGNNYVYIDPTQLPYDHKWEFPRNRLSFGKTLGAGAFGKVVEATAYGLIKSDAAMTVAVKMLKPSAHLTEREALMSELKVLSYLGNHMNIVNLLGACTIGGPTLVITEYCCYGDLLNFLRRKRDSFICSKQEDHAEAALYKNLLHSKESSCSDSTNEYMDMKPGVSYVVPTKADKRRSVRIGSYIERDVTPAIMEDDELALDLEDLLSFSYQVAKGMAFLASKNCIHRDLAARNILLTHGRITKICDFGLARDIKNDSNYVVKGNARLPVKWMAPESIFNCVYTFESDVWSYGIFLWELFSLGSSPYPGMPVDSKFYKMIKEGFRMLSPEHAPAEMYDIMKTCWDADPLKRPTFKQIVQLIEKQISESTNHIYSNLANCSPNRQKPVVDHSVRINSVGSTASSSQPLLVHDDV

[12] = biological target: Flt-4 (Homo sapiens, UniProt P35916); test: Kinase inhibition Flt-4; assay type: biochemical

Nc1cccc(-c2cc3c(Oc4cccc(O)c4)ncnc3[nH]2)c1 [Example 1, 3-[6-(3-Amino-phenyl)-7H-pyrrolo[2,3-d]pyrimidin-4-yloxy]-phenol]
inhibition at 10 µM [1]: 100% | increase in β-catenin induced TCF/LEF reporter activity [2]: eleven | inhibition at 10 µM [3]: 100% | inhibition at 10 µM [4]: 100% | inhibition at 10 µM [5]: 100% | inhibition at 10 µM ([6]; 10 μM): 100% | IC50 ([6]; read-out: IC50 against HER-2): 30 nM | inhibition at 10 µM [7]: 100% | inhibition at 10 µM ([8]; 10 μM): 100% | IC50 ([8]; read-out: IC50 against c-Abl): 4.5 nM | inhibition at 10 µM [9]: 100% | differentiation of P19 cells into glial and muscle cells [10]: not detected | nestin immunostaining of the remaining cells (neuronal progenitor cells) [10]: immunostained positively for nestin | cells differentiating specifically into neuronal lineages ([10]; monolayers of P19 cells, neuronal morphology and immunostaining with neuronal specific markers): 30-40% | inhibition at 10 µM ([11]; 10 μM): 100% | IC50 ([11]; read-out: IC50 against c-Kit): 20 nM | inhibition at 10 µM [12]: 100%
